Values quoted from earlier work in patent US8388671B2, “Methods for treatment of aneurysmal tissue” (Medtronic Vascular, Inc., priority 2004, dated 2013).

hydroxy-polyethoxy-dodecane [Polidocanol]
LD50 in rabbits (rabbits): 200 mg/kg
LD50 relative to that of Novocain (rabbits; LD50 greater than that of Novocain): approximately 5 times
LD50 in mice (mice): 1200 mg/kg
